Experimental data as given in US6057119A, “Crystal structure and mutants of interleukin-1β converting enzyme” (Vertex Pharmaceuticals, Incorporated, priority 1995, dated 2000).

Target: T1, human interleukin-1β converting enzyme (ICE), wild type, autoprocessed p20/p10 from p30 precursor (residues Asn 120 to His 404 of p45), SEQ ID No: 1 (Homo sapiens, UniProt P29466)
T1 construct: the concomitant appearance of the p20 and p10 subunits, was monitored by SDS-PAGE, evidence that autocatalytic processing of the enzyme had occurred; made in house
T1 sequence (P29466 120-297): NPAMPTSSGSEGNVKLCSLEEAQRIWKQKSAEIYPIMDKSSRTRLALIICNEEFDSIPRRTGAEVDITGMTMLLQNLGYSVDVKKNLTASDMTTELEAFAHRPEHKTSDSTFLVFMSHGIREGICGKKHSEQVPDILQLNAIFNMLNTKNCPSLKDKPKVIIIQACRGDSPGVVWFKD
T1 sequence (P29466 317-404): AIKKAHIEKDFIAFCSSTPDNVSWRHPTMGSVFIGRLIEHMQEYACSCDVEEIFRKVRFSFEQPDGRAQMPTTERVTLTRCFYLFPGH
Test: Inhibition of autoprocessed ICE by tetrapeptide aldehyde inhibitor (activity assayed by hydrolysis of Succinyl-Tyr-Val-Ala-Asp-p-nitroanilide)
Assay type: biochemical
Settings: 2× molar excess of inhibitor over enzyme
Description: The protein was concentrated to 3-5 mg/ml by ultrafiltration at 4° C., followed by incubation at room temperature. The disappearance of the p30 precursor, and the concomitant appearance of the p20 and p10 subunits, was monitored by SDS-PAGE, evidence that autocatalytic processing of the enzyme had occurred. ICE enzymatic activity was assayed by hydrolysis of a Succinyl-Tyr-Val-Ala-Asp-p-nitroanilide substrate at 37° C. and correlated closely with conversion to subunits.
The protein-inhibitor complex sample was concentrated and fractionated by size-exclusion chromatography, in final preparation for crystallization experiments.

inhibition of autoprocessed ICE: inhibited fully
Structure (SMILES): CC(=O)N[C@@H](Cc1ccc(O)cc1)C(=O)N[C@H](C(=O)N[C@@H](C)C(=O)N[C@H](C=O)CC(=O)O)C(C)C [acetyl-Tyr-Vol-Ala-Asp-H]
